From ChEMBL document CHEMBL1201862, “PubChem BioAssay data set” (2004)
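Values below derive from 48-hour exposures of cells grown in 96-well plates, with endpoints linearly interpolated between the two concentrations bracketing the appropriate inhibition level. The concentration for 50% growth inhibition is given as GI50.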 Activity calls are given as the source filed them. Rule as the data show it: active = GI50 up to about 1.1 µM and inactive = higher.

Columns and labels:
Assay in all cases: NCI anticancer screen, dose series, 48 h
[1] = system: A498
[2] = system: M14
[3] = system: SNB-75
[4] = system: OVCAR-8
[5] = system: A549
[6] = system: CCRF-CEM
[7] = system: SNB-19
[8] = system: Hs-578T
[9] = system: ACHN
[10] = system: SR
[11] = system: MDA-MB-435
[12] = system: MCF7
[13] = system: SF-268
[14] = system: SW-620
[15] = system: NCI-H522
[16] = system: T47D
[17] = system: HT-29
[18] = system: UO-31
[19] = system: HCT-15
[20] = system: U-251

SMILES | GI50 [1] | GI50 [2] | GI50 [3] | GI50 [4] | GI50 [5] | GI50 [6] | GI50 [7] | GI50 [8] | GI50 [9] | GI50 [10] | GI50 [11] | GI50 [12] | GI50 [13] | GI50 [14] | GI50 [15] | GI50 [16] | GI50 [17] | GI50 [18] | GI50 [19] [µM] | GI50 [20]
Cn1cc(-c2n[nH]c(-c3ccc(Cl)cc3)nc2=O)c2ccccc21 | 2.04 µM (inactive) | 3.18 µM (inactive) | 3.11 µM (inactive) | 5.62 µM (inactive) | 3.94 µM (inactive) | 1.77 µM (inactive) | 3.03 µM (inactive) | 2.76 µM (inactive) | 7.76 µM (inactive) | 0.774 µM (active) | 0.184 µM (active) | 1.8 µM (inactive) | 7.59 µM (inactive) | 1.91 µM (inactive) | 0.959 µM (active) | 9.59 µM (inactive) | 2.19 µM (inactive) | 1.06 µM (active) | 1.1 | 2.31 µM (inactive)
COc1ccc(Oc2cccc(C3C4C(=O)N(c5ccc(C)c(Cl)c5)C(=O)C4ON3C(C(N)=O)c3ccccc3)c2)cc1 (stereo not given) | 38.5 µM (inactive) | 13.1 µM (inactive) | 6.08 µM (inactive) | 17.5 µM (inactive) | 20.9 µM (inactive) | 14 µM (inactive) | 24 µM (inactive) | 17.9 µM (inactive) | 23.5 µM (inactive) | 9.98 µM (inactive) | 15.5 µM (inactive) | 15.3 µM (inactive) | 18.3 µM (inactive) | 20.9 µM (inactive) | 10.6 µM (inactive) | 9.23 µM (inactive) | 9.33 µM (inactive) | 29.6 µM (inactive) | 8.39 | 16.6 µM (inactive)
Cc1cc(C)cc(Nc2nnc3n2S(=O)(=O)c2cc(C)c(Cl)cc2S3)c1 | 5.09 µM (inactive) | 8.09 µM (inactive) | 3.87 µM (inactive) | 3.97 µM (inactive) | 5.01 µM (inactive) | 0.313 µM (active) | 4.3 µM (inactive) | 2.94 µM (inactive) | 7.66 µM (inactive) | 2.09 µM (inactive) | 6.03 µM (inactive) | 3.77 µM (inactive) | 3.81 µM (inactive) | 3.45 µM (inactive) | 3.56 µM (inactive) | 5.69 µM (inactive) | 7.26 µM (inactive) | 7.14 µM (inactive) | 4.37 | 3.24 µM (inactive)
CC(=O)Nc1sc(Br)cc1S(=O)(=O)c1ccc(Cl)cc1 | 47.2 µM (inactive) | 15.2 µM (inactive) | 28.2 µM (inactive) | 26.9 µM (inactive) | 29.2 µM (inactive) | 35.1 µM (inactive) | 46.6 µM (inactive) | 20 µM (inactive) | 34 µM (inactive) | 14.6 µM (inactive) | 28.1 µM (inactive) | 12.8 µM (inactive) | 30.1 µM (inactive) | 71.1 µM (inactive) | 19.3 µM (inactive) | 32.1 µM (inactive) | 16.9 µM (inactive) | 22.5 µM (inactive) | > 10 | 34.8 µM (inactive)
CC1(CC(=O)O)OC2CCCCCC2O1.NCc1ccccc1 (stereo not given) | > 100 µM (inactive) | > 100 µM (inactive) | 99.3 µM (inactive) | > 100 µM (inactive) | > 100 µM (inactive) | 34.2 µM (inactive) | > 100 µM (inactive) | > 100 µM (inactive) | > 100 µM (inactive) | > 100 µM (inactive) | > 100 µM (inactive) | > 100 µM (inactive) | > 100 µM (inactive) | > 100 µM (inactive) | > 100 µM (inactive) | 92.9 µM (inactive) | 64.1 µM (inactive) | > 100 µM (inactive) | > 100 | 91.4 µM (inactive)
CC(=O)OC1CCn2c1nc1c2C(=O)C=C(N2CC2)C1=O (stereo not given) | 0.218 µM (active) | 0.0519 µM (active) | 0.174 µM (active) | 0.402 µM (active) | 1.41 µM (inactive) | < 0.01 µM (active) | 2.88 µM (inactive) | 0.524 µM (active) | 0.0354 µM (active) | 0.0953 µM (active) | 0.476 µM (active) | 0.173 µM (active) | 0.185 µM (active) | < 0.0211 µM (active) | 0.0112 µM (active) | 0.745 µM (active) | 0.693 µM (active) | 0.103 µM (active) | 0.403 | 0.218 µM (active)
COc1ccc2nc3cc(Cl)ccc3c(NCCNC(=O)Cn3c(=O)n(C)c(=O)c4c3nc3c(c(=O)n(C)c(=O)n3C)[n+]4[O-])c2c1 | > 60.4 µM (inactive) | > 81.8 µM (inactive) | 33.9 µM (inactive) | 2.47 µM (inactive) | 71.8 µM (inactive) | 50 µM (inactive) | 23.9 µM (inactive) | 20.3 µM (inactive) | 36.8 µM (inactive) | 18.5 µM (inactive) | > 45.7 µM (inactive) | 33 µM (inactive) | 17.2 µM (inactive) | 34.2 µM (inactive) | 25.4 µM (inactive) | 35.6 µM (inactive) | 24.2 µM (inactive) | > 100 µM (inactive) | > 100 | 21 µM (inactive)
